Assay results taken from article PMC6628648, “Enabling microbial syringol conversion through structure-guided protein engineering” (Proceedings of the National Academy of Sciences of the …, 2019).

Tests used:
GcoA variant F169S [1] = target: T1, GcoA variant F169S (Amycolatopsis sp., UniProt P0DPQ7, F169S); assay: NADH consumption assay (specific activity) with GcoB; type: biochemical, Amycolatopsis sp. ATCC 39116; conditions: saturating (200 µM) substrate, pH 7.5, 25°C
T1 construct: GST (N, cleaved yes); made in house; host or cells: E. coli Rosetta 2 (DE3)

GcoA variant F169L = target: T2, GcoA variant F169L (Amycolatopsis sp., UniProt P0DPQ7, F169L); assay: as above; type: biochemical, Amycolatopsis sp. ATCC 39116; conditions: saturating (200 µM) substrate, pH 7.5, 25°C
T2 construct: GST (N, cleaved yes); made in house; host or cells: E. coli Rosetta 2 (DE3)

GcoA variant F169H = target: T3, GcoA variant F169H (Amycolatopsis sp., UniProt P0DPQ7, F169H); assay: End-point coupling assay (formaldehyde produced per NADH consumed); type: biochemical, Amycolatopsis sp. ATCC 39116; conditions: molar ratio formaldehyde produced per NADH consumed, 200 µM NADH, 200 µM aromatic substrate
T3 construct: GST (N, cleaved yes); made in house; host or cells: E. coli Rosetta 2 (DE3)
Experimental: (§1) The [formaldehyde] produced on reaction with GcoA-F169A and substrates was determined using a colorimetric assay with tryptophan ([28], [42]); details are provided in SI Appendix. […]
(§2) vi = Vmax[S]/(KM + [S]) (4) […]
(§3) Formaldehyde determination. A colorimetric assay using tryptophan can be used to quantify the amount of formaldehyde produced in F169 GcoA/B reactions with guaiacol, syringol, or 3MC. 0.2 µM each of F169 GcoA mutants and GcoB were dissolved in air-saturated buffer (25 mM HEPES, 50 mM NaCl) in a cuvette at pH 7.5, 25 °C. 100 µg/mL catalase was added to each reaction to capture any H2O2 formed during the uncoupled reaction. 200 μM NADH was added and the background rate recorded. 100 (guaiacol, syringol, or 3MC) or 200 (syringol) μM of substrate was then added and the reaction monitored until there was no more change, due to either substrate, NADH or O2 depletion, whichever occurred first. 200 µL of the reaction was then quenched by adding 200 µL of a 0.1% tryptophan solution in 50% ethanol and 200 µL of 90% sulfuric acid. Upon thorough mixing, 40 µL of 1% FeCl3 was added. The solution was then incubated in a heating block for 90 min at 70 °C. After cooling, the absorbance was read at 575 nm and the [formaldehyde] calculated by using ε575 nm = 4.2 mM-1 cm-1, obtained with formaldehyde as a standard (1). A negative control included everything but the substrate and was used as a baseline. […]
(§4) The reaction of each aliquot was immediately quenched with 12.5
(§5) μL saturated ammonium sulfate, 7% v/v H2SO4 (pH 2.0) prior to loading onto the HPLC column. [Substrate] disappearance was referenced to GcoA (0.2 µM) and fit to a linear line to determine specific activity.
(§6) Data analysis. The consumption of NADH and subsequent production of formaldehyde and aromatic product were measured in triplicate and the error reported as ±1 standard deviation. To determine the statistical significance between NADH consumption and the products produced, the p-value was determined for all runs containing guaiacol, syringol, and 3MC. These values were calculated using two degrees of freedom, a tail value of two, and assuming a t-statistical value for unequal variances.
(§7) Detection of H2O2 via horseradish peroxidase (HRP) and Amplex Red assay. The reaction between 100 μM guaiacol or 3MC with 0.2 μM F169A/GcoB and 100 μM NADH in air-saturated buffer (25 mM HEPES, 50 mM NaCl, pH 7.5) was monitored continuously in a quartz cuvette, using the NADH consumption assay described above. The same thing was done for syringol, but with either 100 or 200 μM NADH. When there was no longer any change in the spectra, e.g., the reaction was completed, 100 μL was removed from the cuvette and pipetted into a 96-well microplate. A 5 mL solution containing 50 μL of 10 mM Amplex Red (prepared in DMSO and stored at -20 °C) and 100 μL of 10 U/mL HRP was made up in the above buffer. 100 μL of this was added to each of the wells with each reaction sample. The plate was incubated in the dark at room temperature for 30 min, at which point the absorbance at […]
(§8) Table S1. Rate of substrate disappearance or product appearance (specific activity) for F169A.
(§9) Substrate NADH disappearance aromatic substrate disappearance KD (µM) […]
(§10) Table S2. Rates of substrate disappearance and coupling efficiencies for reactions catalyzed by the GcoA-F169 variants.
(§11) GcoA Specific activity Coupling Specific activity Coupling Specific activity (μmol Coupling variant (μmol sec-1 μmol-1 efficiency (μmol sec-1 μmol-1 efficiency sec-1 μmol-1 GcoA)a efficiency GcoA)a (%)b GcoA)a (%)b (%)b […]
(§12) aNADH consumption was monitored continuously over time via UV/vis and quantifying with ε340 = 6.22 mM-1 cm-1 at 25°C, 25 mM HEPES, 50 mM NaCl, pH 7.5 and saturating (200 µM) concentrations of all substrates (syringol, guaiacol, and 3MC). bCalculated as the molar ratio of formaldehyde produced per NADH consumed in a fixed-time assay. Assay conditions: 0.2 µM […]

GcoA variant F169I = target: T4, GcoA variant F169I (Amycolatopsis sp., UniProt P0DPQ7, F169I); assay: as above; type: biochemical, Amycolatopsis sp. ATCC 39116; conditions: molar ratio formaldehyde produced per NADH consumed, 200 µM NADH, 200 µM aromatic substrate
T4 construct: GST (N, cleaved yes); made in house; host or cells: E. coli Rosetta 2 (DE3)
Experimental: as §1, §2, §3, §4, §5, §6, §7, §8, §9, §10, §11, §12

GcoA variant F169S [2] = target: T1, GcoA variant F169S; assay: as above; type: biochemical, Amycolatopsis sp. ATCC 39116; conditions: molar ratio formaldehyde produced per NADH consumed, 200 µM NADH, 200 µM aromatic substrate
Experimental: as §1, §2, §3, §4, §5, §6, §7, §8, §9, §10, §11, §12

GcoA variant F169V = target: T5, GcoA variant F169V (Amycolatopsis sp., UniProt P0DPQ7, F169V); assay: as above; type: biochemical, Amycolatopsis sp. ATCC 39116; conditions: molar ratio formaldehyde produced per NADH consumed, 200 µM NADH, 200 µM aromatic substrate
T5 construct: GST (N, cleaved yes); made in house; host or cells: E. coli Rosetta 2 (DE3)
Experimental: as §1, §2, §3, §4, §5, §6, §7, §8, §9, §10, §11, §12

GcoA-F169A = GcoA-F169A (Amycolatopsis sp., UniProt P0DPQ7, F169A); assay: NADH consumption assay (steady-state kinetics, specific activity) with GcoB; conditions: for Specific activity: NADH consumption, saturating (200 µM) substrate, pH 7.5, 25°C; for NADH disappearance (specific activity): Table S1, saturating substrate
Sequence of GcoA-F169A (P0DPQ7 whole entry F169A): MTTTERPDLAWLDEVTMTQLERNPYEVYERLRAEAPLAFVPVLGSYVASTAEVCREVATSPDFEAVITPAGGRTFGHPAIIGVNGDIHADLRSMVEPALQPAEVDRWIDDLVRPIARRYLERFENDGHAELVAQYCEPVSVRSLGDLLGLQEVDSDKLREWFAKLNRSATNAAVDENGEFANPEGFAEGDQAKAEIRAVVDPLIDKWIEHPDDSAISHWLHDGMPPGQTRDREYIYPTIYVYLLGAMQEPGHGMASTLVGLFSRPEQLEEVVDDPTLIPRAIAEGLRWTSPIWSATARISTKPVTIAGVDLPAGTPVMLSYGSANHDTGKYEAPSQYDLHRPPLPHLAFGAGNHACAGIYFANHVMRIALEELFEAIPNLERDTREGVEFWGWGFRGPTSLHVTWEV

T1 sequence (P0DPQ7 whole entry F169S): as the sequence (P0DPQ7 whole entry F169A) above, with A169S counted along it
T4 sequence (P0DPQ7 whole entry F169I): as the sequence (P0DPQ7 whole entry F169A) above, with A169I counted along it
T5 sequence (P0DPQ7 whole entry F169V): as the sequence (P0DPQ7 whole entry F169A) above, with A169V counted along it
T2 sequence (P0DPQ7 whole entry F169L): as the sequence (P0DPQ7 whole entry F169A) above, with A169L counted along it
T3 sequence (P0DPQ7 whole entry F169H): as the sequence (P0DPQ7 whole entry F169A) above, with A169H counted along it

For `COc1ccccc1O` [guaiacol, 2-methoxyphenol], the Specific activity (GcoA variant F169S [1]) was 5.7 ± 0.8 μmol sec-1 μmol-1 GcoA, the Specific activity (GcoA variant F169L) was 4.5 ± 0.3 μmol sec-1 μmol-1 GcoA and the Coupling efficiency (GcoA variant F169H) was 103 ± 10%. For the same molecule, the Coupling efficiency (GcoA variant F169I) was 41 ± 10%, the Coupling efficiency (GcoA variant F169S [2]) was 67 ± 8% and the Coupling efficiency (GcoA variant F169V) was 105 ± 2%. The Specific activity (GcoA-F169A) was 5.8 ± 0.8 μmol sec-1 μmol-1 GcoA and the “NADH disappearance (specific activity)” value (GcoA-F169A) was 5.8 ± 0.8 μM s-1 μmol F169A-1.
`COc1cccc(OC)c1O` [syringol, 2,6-dimethoxyphenol] showed a Specific activity (GcoA variant F169S [1]) of 5.1 ± 0.9 μmol sec-1 μmol-1 GcoA, a Specific activity (GcoA variant F169L) of 0.54 ± 0.1 μmol sec-1 μmol-1 GcoA and a Coupling efficiency (GcoA variant F169H) of 56 ± 7%. The Coupling efficiency (GcoA variant F169I) was 14 ± 2%, the Coupling efficiency (GcoA variant F169S [2]) was 85 ± 5% and the Coupling efficiency (GcoA variant F169V) was 100 ± 10%. The Specific activity (GcoA-F169A) was 5.1 ± 0.8 μmol sec-1 μmol-1 GcoA and the “NADH disappearance (specific activity)” value (GcoA-F169A) was 5.1 ± 0.8 μM s-1 μmol F169A-1.
In the case of `COc1cccc(O)c1O` [3MC, 3-methoxycatechol], the Specific activity (GcoA variant F169S [1]) is reported as 6.0 ± 0.8 μmol sec-1 μmol-1 GcoA, the Specific activity (GcoA variant F169L) is reported as 0.57 ± 0.2 μmol sec-1 μmol-1 GcoA and the Coupling efficiency (GcoA variant F169H) is reported as 28 ± 20%. The Coupling efficiency (GcoA variant F169I) was 10 ± 9%, the Coupling efficiency (GcoA variant F169S [2]) was 67 ± 8% and the Coupling efficiency (GcoA variant F169V) was 40 ± 3%. The Specific activity (GcoA-F169A) was 5.6 ± 0.8 μmol sec-1 μmol-1 GcoA and the “NADH disappearance (specific activity)” value (GcoA-F169A) was 5.6 ± 0.8 μM s-1 μmol F169A-1.
